pIC50: −log10 of the molar value.
Key:
WM-266-4 cells = test: Cell Proliferation Inhibitory Test; format: cell-based; conditions: Homo sapiens, 72 h, cultured three days with test compound, MTT, read-out: 50% cell proliferation inhibitory activity (GI50 value)
Procedure: WM-266-4 cells (ATCC, USA) were seeded in a 96-well plate and cultured overnight. Then, serial dilutions of the sample containing the test compound were prepared, added to each well and cultured another three days. Thereafter, the cell amount in each well was measured by MTT (MOSMANN, T., Rapid colorimetric assay for cellular growth and survival: application to proliferation and cytotoxicity assays. J. Immunol. Methods, 65, 55-63 (1983)). The 50% cell proliferation inhibitory activity (GI50 value) was calculated from the following formula (3). 100×[(T−T0)/(C−T0)]=50 (3)
Here, T represents values from the test compound added wells, C represents the value from the well to which the test compound was not added for three days, and To represents an initial measured value at the time of addition of the test compound.

human mTOR = molecular target: T1, human mTOR (Homo sapiens, UniProt P42345); test: mTOR Kinase Activity Inhibition Test; format: biochemical; conditions: His-tagged mTOR (1362C), biotinylated peptide substrate, ATP, 3 hours at room temperature, fluorescence resonance energy transfer 665 nm/620 nm; read-out: IC50 value of mTOR enzyme inhibitory activity
T1 construct: the portion corresponding to 1362-2549aa at the C terminus of human mTOR; made in house
Procedure: The kinase activity of mTOR was measured in the presence or absence of a test compound. A substrate peptide is phosphorylated by mTOR kinase activity. A complex of streptavidin-XL665 and anti-phosphorylated S6K (Thr389) antibody/anti-mouse IgG-cryptate binds to this phosphorylated peptide. At this moment, fluorescence resonance energy transfer takes place from antibody/anti-mouse IgG-cryptate exposed to light excitation to XL665, which results in emission of fluorescence at 665 nm. The mTOR kinase activity is detected using this principle.
(1) Sample Preparation and Enzymatic Reaction
An HEK293 cell line that constitutively expresses a His tag fused human mTOR has been established. His tag was introduced into the N terminus of the portion corresponding to 1362-2549aa at the C terminus of human mTOR. Cell lysate was prepared from this HEK293 cell line constitutively expressing His-tagged mTOR (1362C), and His-tagged mTOR (1362C) was purified using the His tag affinity according to a conventional method.
Next, an mTOR enzyme solution was prepared, which contains the aforementioned His-tagged mTOR (1362C) enzyme, 8 μg/mL of biotinylated peptide (Biotin-Ahx-[…]-amide (Sigma)), as well as 50 mM HEPES (pH 7.5), 20 mM MnCl2, 1 mg/ml BSA, an appropriate amount of protease inhibitor cocktail (Complete EDTA free, Roche), 100 ng/ml Calyculin A, 4 μg/ml Cantharidin and 10 mM DTT as other components.
The test compound was dissolved in DMSO, and serial dilutions were prepared with 20 μM ATP solution (50 mM HEPES (pH 7.5), 20 μM ATP) to achieve concentrations necessary for the assay. 5 μL of this compound solution was applied to each well of a 384 well small volume white Greiner plate.
5 μL of mTOR enzyme solution was added to the aforementioned well containing the test compound. After mixing, the mixture was incubated at room temperature for 3 hours to carry out the enzymatic reaction.
The same operation was performed with a solution of DMSO in 20 μM ATP solution as a positive control and with a solution of DMSO in 50 mM HEPES (pH 7.5) as a negative control.
(2) Detection of Enzymatic Reaction
After the enzymatic reaction, 5 μl each of an europium solution (a solution of anti-mouse IgG-cryptate (SCETI Medical Labo K.K.) and anti-phosphorylated S6K (Thr389) antibody (Cell Signaling Technology Inc.) in 50 mM HEPES (pH 7.5), 100 mM EDTA and 1.5 mg/ml BSA) and an XL665 solution (a solution of streptavidin-XL665 (SCETI Medical Labo K.K.) in 50 mM HEPES (pH 7.5), 100 mM EDTA, 0.8 M KF and 1.5 mg/ml BSA) were added in this order and then mixed. The mixture was incubated at 4° C. overnight. On the following day, the mixture was returned to room temperature and irradiated with excitation light at 337 nm. Fluorescence at 620 nm and fluorescence at 665 nm were measured with RUBYstar (BMG).
The mTOR inhibitory activity (%) was calculated using the ratio calculated from the measured values as an index of enzyme activity. Here, the ratio was calculated from the following formula (I). Ratio=10000×665 nm fluorescence value/620 nm fluorescence value (1)
The mTOR enzyme inhibitory activity (%) was calculated from the following formula (2). mTOR enzyme inhibitory activity (%)=100×[(P−S)/(P−N)] (2)
P: Ratio in well of positive control
N: Ratio in well of negative control
S: Ratio in well containing test compound
Further, an optimal curve was calculated based upon each concentration of the test compound prepared in serial dilutions and the mTOR enzyme inhibitory activity (%) at that concentration. The concentration at which 50% inhibition occurred was calculated as the IC50 value of mTOR enzyme inhibitory activity.

T1 sequence (P42345 1362-2549): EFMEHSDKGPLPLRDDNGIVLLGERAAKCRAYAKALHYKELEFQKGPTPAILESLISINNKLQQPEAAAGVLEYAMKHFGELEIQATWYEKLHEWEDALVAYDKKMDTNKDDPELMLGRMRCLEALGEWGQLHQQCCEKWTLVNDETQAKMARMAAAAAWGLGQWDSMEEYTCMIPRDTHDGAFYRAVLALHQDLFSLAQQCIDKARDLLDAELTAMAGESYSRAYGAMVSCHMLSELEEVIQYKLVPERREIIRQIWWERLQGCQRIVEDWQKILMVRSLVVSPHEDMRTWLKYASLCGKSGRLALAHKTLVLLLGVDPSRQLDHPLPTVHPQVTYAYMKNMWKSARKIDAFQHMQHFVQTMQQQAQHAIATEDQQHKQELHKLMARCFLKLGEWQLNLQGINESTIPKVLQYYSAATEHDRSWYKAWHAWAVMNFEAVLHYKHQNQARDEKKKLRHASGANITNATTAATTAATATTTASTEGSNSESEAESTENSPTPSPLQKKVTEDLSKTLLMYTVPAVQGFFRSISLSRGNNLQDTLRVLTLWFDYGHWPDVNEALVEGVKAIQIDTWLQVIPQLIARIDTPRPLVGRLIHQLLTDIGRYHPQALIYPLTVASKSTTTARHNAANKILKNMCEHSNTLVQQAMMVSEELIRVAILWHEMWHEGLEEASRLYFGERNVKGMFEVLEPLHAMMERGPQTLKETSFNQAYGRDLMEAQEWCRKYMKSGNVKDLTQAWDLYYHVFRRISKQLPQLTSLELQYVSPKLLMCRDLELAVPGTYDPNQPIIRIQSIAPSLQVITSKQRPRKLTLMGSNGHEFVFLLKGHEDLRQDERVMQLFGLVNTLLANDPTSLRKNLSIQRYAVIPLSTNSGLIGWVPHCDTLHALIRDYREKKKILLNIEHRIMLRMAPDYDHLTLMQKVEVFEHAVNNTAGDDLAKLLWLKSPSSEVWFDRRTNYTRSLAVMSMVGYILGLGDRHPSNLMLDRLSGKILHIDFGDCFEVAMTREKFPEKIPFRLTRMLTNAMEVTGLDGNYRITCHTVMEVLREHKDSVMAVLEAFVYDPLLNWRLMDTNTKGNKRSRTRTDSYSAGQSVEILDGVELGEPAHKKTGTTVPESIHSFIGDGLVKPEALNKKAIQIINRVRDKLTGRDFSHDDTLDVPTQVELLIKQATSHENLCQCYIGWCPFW

pIC50 (human mTOR)	SMILES	GI50 (WM-266-4 cells) [nM]
> 7.30	Cc1c(-c2cnc3[nH]c(=O)n(C[C@H]4CC[C@@H](O)CO4)c3c2)cnc2[nH]ccc12 (racemic) [Example 141, 2,6-Anhydro-1,3,4-trideoxy-1-[6-(4-methyl-1H-pyrrolo[2,3-b]pyridin-5-yl)-2-oxo-2,3-dihydro-1H-imidazo[4,5-b]pyridin-1-yl]-DL-threo-hexitol]	< 3000
> 7.30	CO[C@@H]1CC[C@H](Cn2c(=O)[nH]c3ncc(-c4cnc5[nH]ccc5c4C)cc32)OC1 (racemic) [Example 142, 2,6-Anhydro-1,3,4-trideoxy-5-O-methyl-1-[6-(4-methyl-1H-pyrrolo[2,3-b]pyridin-5-yl)-2-oxo-2,3-dihydro-1H-imidazo[4,5-b]pyridin-1-yl]-DL-threo-hexitol]	< 3000
> 7.30	O=c1[nH]c2ncc(-c3ccc4[nH]ccc4c3)cc2n1CC1CC1 [Example 1, 1-(Cyclopropylmethyl)-6-(1H-indol-5-yl)-1,3-dihydro-2H-imidazo[4,5-b]pyridin-2-one]	< 3000
5.30 to 7.00	O=c1[nH]c2ncc(-c3ccc4[nH]ccc4c3)cc2n1C1CCOCC1 [Example 2, 6-(1H-Indol-5-yl)-1-(tetrahydro-2H-pyran-4-yl)-1,3-dihydro-2H-imidazo[4,5-b]pyridin-2-one]	< 3000
> 7.30	O=c1[nH]c2ncc(-c3ccc4[nH]ccc4c3)cc2n1CCC1CCOCC1 [Example 3, 6-(1H-Indol-5-yl)-1-[2-(tetrahydro-2H-pyran-4-yl)ethyl]-1,3-dihydro-2H-imidazo[4,5-b]pyridin-2-one]	< 3000
> 7.30	O=c1[nH]c2ncc(-c3ccc4[nH]ccc4c3)cc2n1CC1CCOCC1 [Example 4, 6-(1H-Indol-5-yl)-1-(tetrahydro-2H-pyran-4-ylmethyl)-1,3-dihydro-2H-imidazo[4,5-b]pyridin-2-one]	< 3000
> 7.30	O=c1[nH]c2ncc(-c3cnc4ccccc4c3)cc2n1CC1CCOCC1 [Example 5, 6-Quinolin-3-yl-1-(tetrahydro-2H-pyran-4-ylmethyl)-1,3-dihydro-2H-imidazo[4,5-b]pyridin-2-one]	< 3000
> 7.30	O=c1[nH]c2ncc(-c3ccc4[nH]ccc4c3)cc2n1CC1CCCCC1 [Example 6, 1-(Cyclohexylmethyl)-6-(1H-indol-5-yl)-1,3-dihydro-2H-imidazo[4,5-b]pyridin-2-one]	< 3000
> 7.30	Cc1nc2[nH]c(=O)n(CC3CCOCC3)c2cc1-c1ccc2[nH]ccc2c1 [Example 7, 6-(1H-Indol-5-yl)-5-methyl-1-(tetrahydro-2H-pyran-4-ylmethyl)-1,3-dihydro-2H-imidazo[4,5-b]pyridin-2-one]	< 3000
5.30 to 7.00	Cc1c(-c2ccc3[nH]ccc3c2)cnc2[nH]c(=O)n(CC3CCOCC3)c12 [Example 8, 6-(1H-Indol-5-yl)-7-methyl-1-(tetrahydro-2H-pyran-4-ylmethyl)-1,3-dihydro-2H-imidazo[4,5-b]pyridin-2-one]	3000 to 25000
> 7.30	CS(=O)(=O)N1CCC(Cn2c(=O)[nH]c3ncc(-c4ccc5[nH]ccc5c4)cc32)CC1 [Example 9, 6-(1H-Indol-5-yl)-1-{[1-(methanesulfonyl)piperidin-4-yl]methyl}-1,3-dihydro-2H-imidazo[4,5-b]pyridin-2-one]	< 3000
> 7.30	O=c1[nH]c2ncc(-c3ccc4ncccc4c3)cc2n1CC1CCOCC1 [Example 10, 6-Quinolin-6-yl-1-(tetrahydro-2H-pyran-4-ylmethyl)-1,3-dihydro-2H-imidazo[4,5-b]pyridin-2-one]	3000 to 25000
5.30 to 7.00	O=c1[nH]c2ncc(-c3ccc4[nH]ncc4c3)cc2n1CC1CCOCC1 [Example 14, 6-(1H-Indazol-5-yl)-1-(tetrahydro-2H-pyran-4-ylmethyl)-1,3-dihydro-2H-imidazo[4,5-b]pyridin-2-one]	3000 to 25000
> 7.30	O=c1[nH]c2ncc(-c3cnc4[nH]ccc4c3)cc2n1CC1CCOCC1 [Example 15, 6-(1H-Pyrrolo[2,3-b]pyridin-5-yl)-1-(tetrahydro-2H-pyran-4-ylmethyl)-1,3-dihydro-2H-imidazo[4,5-b]pyridin-2-one]	< 3000
> 7.30	Cc1nc2[nH]ccc2cc1-c1cnc2[nH]c(=O)n(CC3CCOCC3)c2c1 [Example 16, 6-(6-Methyl-1H-pyrrolo[2,3-b]pyridin-5-yl)-1-(tetrahydro-2H-pyran-4-ylmethyl)-1,3-dihydro-2H-imidazo[4,5-b]pyridin-2-one]	< 3000
> 7.30	Cc1nc2[nH]c(=O)n(CC3CCOCC3)c2cc1-c1cnc2[nH]ccc2c1 [Example 17, 5-Methyl-6-(1H-pyrrolo[2,3-b]pyridin-5-yl)-1-(tetrahydro-2H-pyran-4-ylmethyl)-1,3-dihydro-2H-imidazo[4,5-b]pyridin-2-one]	< 3000
> 7.30	Cc1c(-c2cnc3[nH]ccc3c2)cnc2[nH]c(=O)n(CC3CCOCC3)c12 [Example 18, 7-Methyl-6-(1H-pyrrolo[2,3-b]pyridin-5-yl)-1-(tetrahydro-2H-pyran-4-ylmethyl)-1,3-dihydro-2H-imidazo[4,5-b]pyridin-2-one]	< 3000
> 7.30	O=c1[nH]c2ncc(-c3cnc4[nH]ccc4c3)cc2n1C1CCOCC1 [Example 19, 6-(1H-Pyrrolo[2,3-b]pyridin-5-yl)-1-(tetrahydro-2H-pyran-4-yl)-1,3-dihydro-2H-imidazo[4,5-b]pyridin-2-one]	< 3000
> 7.30	O=c1[nH]c2ncc(-c3cnc4[nH]ccc4c3)cc2n1CCC1CCOCC1 [Example 20, 6-(1H-Pyrrolo[2,3-b]pyridin-5-yl)-1-[2-(tetrahydro-2H-pyran-4-yl)ethyl]-1,3-dihydro-2H-imidazo[4,5-b]pyridin-2-one]	< 3000
> 7.30	O=c1[nH]c2ncc(-c3cnc4[nH]ccc4c3)cc2n1CC1CC1 [Example 21, 1-(Cyclopropylmethyl)-6-(1H-pyrrolo[2,3-b]pyridin-5-yl)-1,3-dihydro-2H-imidazo[4,5-b]pyridin-2-one]	< 3000
> 7.30	O=c1[nH]c2ncc(-c3cc4ccccc4[nH]3)cc2n1CC1CCOCC1 [Example 23, 6-(1H-Indol-2-yl)-1-(tetrahydro-2H-pyran-4-ylmethyl)-1,3-dihydro-2H-imidazo[4,5-b]pyridin-2-one]	< 3000
> 7.30	CC(C1CCOCC1)n1c(=O)[nH]c2ncc(-c3cnc4[nH]ccc4c3)cc21 (centres unmarked) [Example 24, 6-(1H-Pyrrolo[2,3-b]pyridin-5-yl)-1-[1-(tetrahydro-2H-pyran-4-yl)ethyl]-1,3-dihydro-2H-imidazo[4,5-b]pyridin-2-one]	< 3000

From patent publication US8436012B2, “Imidazopyridin-2-one derivatives” (Daiichi Sankyo Company, Limited, priority 2008, dated 2013)
